{
  "source": "paper PMC6246607",
  "about": "“Novel AR-12 derivatives, P12-23 and P12-34, inhibit flavivirus replication by blocking host de novo pyrimidine biosynthesis” (Emerging Microbes & Infections, 2018)",
  "key": {"DENV-2 [1]": {"test_system": "DENV-2", "experiment": "Viral binding assay", "type": "cell-based, dengue virus", "conditions": "1 µM, A549 cells, DENV-2 MOI 5, 4 °C 1 h", "description": "A549 cells and DENV-2 separately pretreated with P12-23 (1 µM), P12-34 (1 µM) or heparin (100 unit/ml) at 37 ℃ for 1 h were mixed to allow for viral adsorption at a multiplicity of infection (MOI) of 5 at 4 °C for 1 h. After washing off unbound viruses, RNA was extracted using an RNeasy® Mini Kit (QIAGEN, Hilden, Germany), and viral titers were quantified by real-time RT-PCR as previously described[48] using DENV-2 primers (5′-[…]-3′ and 5′-[…]-3′) and β-actin primers (5′-[…]-3′ and 5′-[…]-3′). After the RNA was normalized to the internal control in each sample, the relative level of viral RNA was determined using the DMSO solvent control."}, "DENV-2 [2]": {"test_system": "DENV-2", "experiment": "Viral translation assay (NS3 western blot)", "type": "cell-based, dengue virus", "conditions": "1 µM added at 1 hpi, A549 cells, DENV-2 MOI 20", "description": "A549 cells absorbed with DENV-2 (MOI 20) at 4 °C for 1 h were washed to remove unbound viruses. After incubating at 37 °C for 1 h to allow viral entry, cells were treated with P12-23 (1 µM), P12-34 (1 µM) or 2′-c-methyladenosine (20 µM). Cells were harvested at 2, 3, 4, and 6 hpi for western blot analysis as previously described[46] with an anti-NS3 mAb[47] and an anti-actin mAb (NB600-501; Novus Biologicals, Littleton, CO, USA). Protein expression levels were quantified using ImageJ."}, "DENV-4": {"test_system": "DENV-4", "experiment": "High-content image analysis of DENV-4 infection (NS3) in A549 cells", "type": "cell-based, dengue virus", "description": "(§1) Approximately 50% of confluent cells seeded in 96-well plates were infected with viruses in the presence of drugs or DMSO as a solvent control. At 24 h post-infection (hpi), cells were fixed with 4% paraformaldehyde at room temperature (RT) for 20 min, permeated with a 0.5% Triton X-100 buffer for 2 min, and blocked with 3% BSA for 30 min. Nuclei were stained with DAPI (Sigma) at RT for 20 min. Viral NS3 was stained with a mouse anti-NS3 monoclonal antibody (mAb)[47] followed by staining with an Alexa Fluor 488-conjugated goat anti-mouse IgG antibody (ThermoFisher) at RT for 1 h. Nine images from different fields per well were acquired and analyzed using an ImageXpress Micro XLS Widefield High-Content Analysis System (Molecular Devices, Sunnyvale, USA). To quantify viral infection, the fluorescence intensities of viral NS3 or eGFP from the reporter virus were measured using MetaXpress® (Molecular Devices, Sunnyvale, USA) and were calculated with a mock control (infection as 0%) and a DMSO solvent control (infection as 100%)."}, "DENV-3": {"test_system": "DENV-3", "experiment": "High-content image analysis of DENV-3 infection (NS3) in A549 cells", "type": "cell-based, dengue virus", "description": "as §1"}, "DENV-2-eGFP": {"test_system": "DENV-2-eGFP", "experiment": "microbe, parasite or virus in culture", "type": "cell-based, dengue virus", "description": "as §1"}, "[3]": {"test_system": "interferon (IFN)-stimulated response element (ISRE) reporter", "experiment": "ISRE reporter assay and IFN-stimulated gene expression in HEK 293T cells", "type": "cell-based, human", "conditions": "1 µM, 24 h", "description": "Short synthetic 5′-triphosphate RNA molecules (ssRNA) was synthesized with use of the RiboMAX™ Large Scale RNA Production Kit (P1280, Promega) from control DNA template in the kit, then extracted with the RNeasy® Mini Kit (QIAGEN). About 80% confluent HEK 293T cells in 48 well-plate were co-transfected with pISRE-Luc (Stratagene, Ref 219089) (10 ng/well) and pRL-TK Renilla reporter plasmids (E2241, Promega) (2 ng/well), and increasing doses of ssRNA, then treated with DMSO, 1 μM brequinar, or 1 μM P12-34 for 24h. The luciferase activities were analyzed by using the Dual-Luciferase® Reporter Assay Kit (Promega) and SpectraMax L Microplate Reader (Molecular devices, San Jose, CA, USA). ISRE-Luciferase activity was firstly normalized with Renilla-luciferase activity, then normalized with DMSO control without ssRNA.\nSupplementary figure 5. P12-34 amplifies innate immune response. (a) HEK 293T cells were co-transfected with pISRE-luc and pRL-TK Renilla reporter plasmids, and short synthetic 5′-triphosphate RNA molecules (ssRNA), then treated with DMSO, brequinar (1 μM), or P12-34 (1 μM) for 24 h. ISRE-Luciferase activity was normalized with Renilla-luciferase activity in each sample, and then the relative ISRE-Luc level was determined with the DMSO control without ssRNA. Representative data from repeated experiments are shown as mean and SD (n =3). […]"}, "DENV-2 [4]": {"test_system": "DENV-2", "experiment": "High-content image analysis of DENV-2 infection (NS3) in A549 cells", "type": "cell-based, dengue virus", "description": "as §1"}, "DENV-2 [5]": {"test_system": "DENV-2", "experiment": "Viral entry assay", "type": "cell-based, dengue virus", "conditions": "1 µM, A549 cells, DENV-2 MOI 5", "description": "A549 cells pretreated with P12-23 (1 µM), P12-34 (1 µM) or Pitstop®2 (5 µM) at 37 ℃ for 1 h were absorbed with DENV-2 (MOI 5) at 4 °C for 1 h. After removing the unbound viruses, cells were shifted to 37 ℃ for 30 min for viral entry. The cell surface-associated viruses were then removed by treatment with trypsin-EDTA (ThermoFisher) at 37 °C for 10 min. Viral entry indicated by E protein positivity was determined using a BD FACSCalibur Flow Cytometer (BD) after immunofluorescent staining with an anti-E mAb[47]."}, "DHODH": {"target": "T1, DHODH (Homo sapiens, UniProt Q02127)", "T1 construct": "endogenous in cells; host or cells: A549 cell lysate", "T1 sequence (Q02127 whole entry)": "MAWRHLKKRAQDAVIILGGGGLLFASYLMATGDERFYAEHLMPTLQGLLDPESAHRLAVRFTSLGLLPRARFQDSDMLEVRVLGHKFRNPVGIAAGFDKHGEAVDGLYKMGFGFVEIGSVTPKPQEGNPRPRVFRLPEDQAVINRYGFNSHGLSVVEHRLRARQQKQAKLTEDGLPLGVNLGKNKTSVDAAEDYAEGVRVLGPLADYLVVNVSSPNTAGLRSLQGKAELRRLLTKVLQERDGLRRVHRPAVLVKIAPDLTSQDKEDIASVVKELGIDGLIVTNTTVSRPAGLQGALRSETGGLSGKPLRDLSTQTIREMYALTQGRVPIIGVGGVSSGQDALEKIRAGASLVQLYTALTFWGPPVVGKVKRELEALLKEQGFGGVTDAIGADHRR", "experiment": "BP12-34 pull-down, DHODH", "type": "binding", "conditions": "BP12-34 0.25 or 0.5 µM pull-down, A549 cell lysates", "description": "Supplementary figure 4. P12-34 interacts with cytochrome bc1 complex. Cell lysates of A549 were treated with 0.25 μM (+) or 0.5 μM (++) BP12-34 at 4 ℃ for 1 h, then incubated with streptavidin (SA) beads at 4 ℃ for 30 min. Non-specific binding was removed by washing with PBS. After precipitation, P12-34-associated proteins were analyzed by western blot with the indicated antibodies against DHODH and cytochrome bc1 complex."}, "[6]": {"conditions": "Dengue virus, DENV2, A549, 24 h"}},
  "note": "Several values for one entry are separate records, joined by “and”; a condition that tells them apart may be missing. Identical values can stand only once.",
  "data": [
    {"smiles": "N[C@@H](Cc1ccccc1)C(=O)Nc1ccc(-n2cc(C(F)(F)F)cc2-c2ccc3c(ccc4ccccc43)c2)cc1", "note": "[P12-34]", "values": [
      {"measurement": "effect on viral binding", "setting": "DENV-2 [1]", "result": "no suppressive effect"},
      {"measurement": "effect on NS3 levels at early stage of infection (viral translation)", "setting": "DENV-2 [2]", "result": "did not reduce NS3 levels until 4~6 h post-infection"},
      {"measurement": "SI (CC50/IC50)", "setting": "DENV-4; DENV-4, A549 cells", "result": "317.8 ± 24.9"},
      {"measurement": "IC50", "setting": "DENV-4; Dengue virus, DENV4, A549, 24 h", "result": "63.9 ± 5.1", "unit": "nM"},
      {"measurement": "SI (CC50/IC50)", "setting": "DENV-3; DENV-3, A549 cells", "result": "223.4 ± 8.6"},
      {"measurement": "IC50", "setting": "DENV-3; Dengue virus, DENV3, A549, 24 h", "result": "90.6 ± 3.4", "unit": "nM"},
      {"measurement": "SI (CC50/IC50)", "setting": "DENV-2-eGFP; DENV-2-eGFP, A549 cells", "result": "388 and 387.9 ± 14.7"},
      {"measurement": "IC50", "setting": "DENV-2-eGFP; [6]", "result": "52.1 ± 2", "unit": "nM"},
      {"measurement": "suppressive effect on DENV replication with added Oro or DHO", "setting": "DENV-2-eGFP; P12-34 1 µM, A549 cells, DENV-2-eGFP MOI 5", "result": "addition of Oro but not DHO could block the suppressive effect"},
      {"measurement": "anti-DENV activity in mitochondria-depleted cells", "setting": "DENV-2-eGFP; ρ0 A549 cells, DENV-2-eGFP MOI 5, 24 h", "result": "lost"},
      {"measurement": "innate immune responses triggered by ssRNA (ISRE reporter, IFIT1, IRF-1)", "setting": "[3]", "result": "enhanced the innate immune responses"},
      {"measurement": "SI (CC50/IC50)", "setting": "DENV-2 [4]; DENV-2, A549 cells", "result": "326.5 ± 26.4"},
      {"measurement": "IC50", "setting": "DENV-2 [4]; [6]", "result": "62.2 ± 4.9", "unit": "nM"},
      {"measurement": "effect on viral entry", "setting": "DENV-2 [5]", "result": "no suppressive effect"},
      {"measurement": "interaction with DHODH", "setting": "DHODH", "result": "did not appear to interact with DHODH"}
    ]}
  ]
}
